Test results: US9873709B2 (priority 2013, dated 2018)
pIC50: −log10 of the molar value. Where a name gives a salt, the structure may show the parent alone.

Test system: JAK1-dependent STAT6 phosphorylation downstream of IL-13 stimulation in TF-1 human erythroleukemia cells
Experiment: cells
Conditions: TF-1, read-out: IL-13-pSTAT6 IC50

pIC50 | SMILES
7.63 | CCOC(=O)N1CC=C(c2cccn3nc(Nc4ccc(C(=O)N(C)C5CCN(C)CC5)cc4)nc23)CC1 [Example 2-1, ethyl 4-[2-[4-[methyl-(1-methyl-4-piperidyl)carbamoyl]anilino]-[1,2,4]triazolo[1,5-a]pyridin-8-yl]-3,6-dihydro-2H-pyridine-1-carboxylate]
7.47 | CN1CCC(N(C)C(=O)c2ccc(Nc3nc4c(C5=CCN(C(=O)OC6CC6)CC5)cccn4n3)cc2)CC1 [Example 2-2, cyclopropyl 4-[2-[4-[methyl-(1-methyl-4-piperidyl)carbamoyl]anilino]-[1,2,4]triazolo[1,5-a]pyridin-8-yl]-3,6-dihydro-2H-pyridine-1-carboxylate]
6.79 | CN1CCC(N(C)C(=O)c2ccc(Nc3nc4c(C5=CCN(C(=O)CC(C)(C)O)CC5)cccn4n3)cc2)CC1 [Example 2-3, 4-[[8-[1-(3-hydroxy-3-methyl-butanoyl)-3,6-dihydro-2H-pyridin-4-yl]-[1,2,4]triazolo[1,5-a]pyridin-2-yl]amino]-N-methyl-N-(1-methyl-4-piperidyl)benzamide]
5.96 | CN1CCC(N(C)C(=O)c2ccc(Nc3nc4c(C5=CCN(C(=O)N6CC(C#N)C6)CC5)cccn4n3)cc2)CC1 [Example 2-5, 4-[[8-[1-(3-cyanoazetidine-1-carbonyl)-3,6-dihydro-2H-pyridin-4-yl]-[1,2,4]triazolo[1,5-a]pyridin-2-yl]amino]-N-methyl-N-(1-methyl-4-piperidyl)benzamide]
7.37 | CN1CCC(N(C)C(=O)c2ccc(Nc3nc4c(C5=CCN(C(=O)OCC#N)CC5)cccn4n3)cc2)CC1 [Example 2-7, cyanomethyl 4-[2-[4-[methyl-(1-methyl-4-piperidyl)carbamoyl]anilino]-[1,2,4]triazolo[1,5-a]pyridin-8-yl]-3,6-dihydro-2H-pyridine-1-carboxylate]
6.07 | CN1CCC(N(C)C(=O)c2ccc(Nc3nc4c(C5=CCN(Cc6ccccc6)CC5)cccn4n3)cc2)CC1 [Example 2-8, 4-[[8-(1-benzyl-3,6-dihydro-2H-pyridin-4-yl)-[1,2,4]triazolo[1,5-a]pyridin-2-yl]amino]-N-methyl-N-(1-methyl-4-piperidyl)benzamide; hydrochloride]
6.21 | CN1CCC(N(C)C(=O)c2ccc(Nc3nc4c(C5=CCN(C(=O)CCO)CC5)cccn4n3)cc2)CC1 [Example 2-9, 4-[[8-[1-(3-hydroxypropanoyl)-3,6-dihydro-2H-pyridin-4-yl]-[1,2,4]triazolo[1,5-a]pyridin-2-yl]amino]-N-methyl-N-(1-methyl-4-piperidyl)benzamide]
8.17 | CCOC(=O)N1CC=C(c2cccn3nc(Nc4ccc(C(=O)NCC(C)(C)N5CCOCC5)cc4)nc23)CC1 [Example 2-11, ethyl 4-[2-[4-[(2-methyl-2-morpholino-propyl)carbamoyl]anilino]-[1,2,4]triazolo[1,5-a]pyridin-8-yl]-3,6-dihydro-2H-pyridine-1-carboxylate]
6.47 | CCOC(=O)N1CC=C(c2cccn3nc(Nc4ccc(C(=O)NCCC5CCNCC5)cc4)nc23)CC1 [Example 2-13, ethyl 4-[2-[4-[2-(4-piperidyl)ethylcarbamoyl]anilino]-[1,2,4]triazolo[1,5-a]pyridin-8-yl]-3,6-dihydro-2H-pyridine-1-carboxylate]
7.77 | CCOC(=O)N1CC=C(c2cccn3nc(Nc4ccc(C(=O)N5CCCC5c5ccncc5)cc4)nc23)CC1 (stereo not shown) [Example 2-15, ethyl 4-[2-[4-[2-(4-pyridyl)pyrrolidine-1-carbonyl]anilino]-[1,2,4]triazolo[1,5-a]pyridin-8-yl]-3,6-dihydro-2H-pyridine-1-carboxylate]
7.25 | CCOC(=O)N1CC=C(c2cccn3nc(Nc4ccc(C(=O)N5CCN(c6cccnc6)CC5)cc4)nc23)CC1 [Example 2-19, ethyl 4-[2-[4-[4-(3-pyridyl)piperazine-1-carbonyl]anilino]-[1,2,4]triazolo[1,5-a]pyridin-8-yl]-3,6-dihydro-2H-pyridine-1-carboxylate]
6.59 | CCOC(=O)N1CC=C(c2cccn3nc(Nc4ccc(C(=O)N5CCN(C)CC(CO)C5)cc4)nc23)CC1 (stereo not shown) [Example 2-20, ethyl 4-[2-[4-[6-(hydroxymethyl)-4-methyl-1,4-diazepane-1-carbonyl]anilino]-[1,2,4]triazolo[1,5-a]pyridin-8-yl]-3,6-dihydro-2H-pyridine-1-carboxylate]
7.67 | CCOC(=O)N1CC=C(c2cccn3nc(Nc4ccc(C(=O)N5CCNCC5C)cc4)nc23)CC1 (stereo not shown) [Example 2-24, ethyl 4-[2-[4-(2-methylpiperazine-1-carbonyl)anilino]-[1,2,4]triazolo[1,5-a]pyridin-8-yl]-3,6-dihydro-2H-pyridine-1-carboxylate]
6.59 | CCOC(=O)N1CC=C(c2cccn3nc(Nc4ccc(C(=O)NC5CC6(CCNCC6)C5)cc4)nc23)CC1 [Example 2-27, ethyl 4-[2-[4-(7-azaspiro[3.5]nonan-2-ylcarbamoyl)anilino]-[1,2,4]triazolo[1,5-a]pyridin-8-yl]-3,6-dihydro-2H-pyridine-1-carboxylate]

Second part, the molecule before the results:

SMILES | pIC50
O=C(c1ccc(Nc2nc3c(N4CCC(O)(c5ccc(Cl)cc5)CC4)cccn3n2)cc1)N1CC2(CCNC2)C1 [Example 1-224, [4-[[8-[4-(4-chlorophenyl)-4-hydroxy-1-piperidyl]-[1,2,4]triazolo[1,5-a]pyridin-2-yl]amino]phenyl]-(2,7-diazaspiro[3.4]octan-2-yl)methanone] | 6.96
O=C(c1ccc(Nc2nc3c(N4CCC(O)(c5ccc(Cl)cc5)CC4)cccn3n2)cc1)N1CCOC2(CCCNC2)C1 (stereo not shown) [Example 1-225, [4-[[8-[4-(4-chlorophenyl)-4-hydroxy-1-piperidyl]-[1,2,4]triazolo[1,5-a]pyridin-2-yl]amino]phenyl]-(1-oxa-4,8-diazaspiro[5.5]undecan-4-yl)methanone] | 7.51
O=C(c1ccc(Nc2nc3c(N4CCC(O)(c5ccc(Cl)cc5)CC4)cccn3n2)cc1)N1CCC2(CCCN2)CC1 [Example 1-226, [4-[[8-[4-(4-chlorophenyl)-4-hydroxy-1-piperidyl]-[1,2,4]triazolo[1,5-a]pyridin-2-yl]amino]phenyl]-(1,8-diazaspiro[4.5]decan-8-yl)methanone] | 7.10
O=C(c1ccc(Nc2nc3c(N4CCC(O)(c5ccc(Cl)cc5)CC4)cccn3n2)cc1)N1CCC2(CC1)CNCCO2 [Example 1-230, [4-[[8-[4-(4-chlorophenyl)-4-hydroxy-1-piperidyl]-[1,2,4]triazolo[1,5-a]pyridin-2-yl]amino]phenyl]-(1-oxa-4,9-diazaspiro[5.5]undecan-9-yl)methanone] | 7.24
O=C(c1ccc(Nc2nc3c(N4CCC(O)(c5ccc(Cl)cc5)CC4)cccn3n2)cc1)N1CCOC2(CCNCC2)C1 [Example 1-231, [4-[[8-[4-(4-chlorophenyl)-4-hydroxy-1-piperidyl]-[1,2,4]triazolo[1,5-a]pyridin-2-yl]amino]phenyl]-(1-oxa-4,9-diazaspiro[5.5]undecan-4-yl)methanone] | 6.04
O=C(c1ccc(Nc2nc3c(N4CCC(O)(c5ccc(Cl)cc5)CC4)cccn3n2)cc1)N1CCCC12CCCNC2 (stereo not shown) [Example 1-233, [4-[[8-[4-(4-chlorophenyl)-4-hydroxy-1-piperidyl]-[1,2,4]triazolo[1,5-a]pyridin-2-yl]amino]phenyl]-(1,9-diazaspiro[4.5]decan-1-yl)methanone] | 6.78
O=C(c1ccc(Nc2nc3c(N4CCC(O)(c5ccc(Cl)cc5)CC4)cccn3n2)cc1)N1C[C@@H]2CCN[C@@H]2C1 [Example 1-234] | 7.44
O=C(c1ccc(Nc2nc3c(N4CCC(O)(c5ccc(Cl)cc5)CC4)cccn3n2)cc1)N1C[C@H]2CNC[C@H]2C1 [Example 1-235, [(3aR,6aS)-2,3,3a,4,6,6a-hexahydro-1H-pyrrolo[3,4-c]pyrrol-5-yl]-[4-[[8-[4-(4-chlorophenyl)-4-hydroxy-1-piperidyl]-[1,2,4]triazolo[1,5-a]pyridin-2-yl]amino]phenyl] methanone] | 6.51
O=C(N[C@H]1[C@@H]2CNC[C@@H]21)c1ccc(Nc2nc3c(N4CCC(O)(c5ccc(Cl)cc5)CC4)cccn3n2)cc1 [Example 1-238, N-[(1R,5S)-3-azabicyclo[3.1.0]hexan-6-yl]-4-[[8-[4-(4-chlorophenyl)-4-hydroxy-1-piperidyl]-[1,2,4]triazolo[1,5-a]pyridin-2-yl]amino]benzamide] | 6.74
O=C(c1ccc(Nc2nc3c(N4CCC(O)(c5ccc(Cl)cc5)CC4)cccn3n2)cc1)N1CC[C@H]2CNC[C@H]21 [Example 1-241, [(3aS,6aS)-3,3a,4,5,6,6a-hexahydro-2H-pyrrolo[2,3-c]pyrrol-1-yl]-[4-[[8-[4-(4-chlorophenyl)-4-hydroxy-1-piperidyl]-[1,2,4]triazolo[1,5-a]pyridin-2-yl]amino]phenyl] methanone] | 6.94
CN1CCC(N(C)C(=O)c2ccc(Nc3nc4c(N5CCC(C)(c6ccc(Cl)cc6)CC5)cccn4n3)cc2)CC1 [Example 1-262, 4-[[8-[4-(4-chlorophenyl)-4-methyl-1-piperidyl]-[1,2,4]triazolo[1,5-a]pyridin-2-yl]amino]-N-methyl-N-(1-methyl-4-piperidyl)benzamide] | 6.92
CN1CCC(N(C)C(=O)c2ccc(Nc3nc4c(N5CCC(CC#N)(c6ccc(Cl)c(F)c6)CC5)cccn4n3)cc2)CC1 [Example 1-263, 4-[[8-[4-(4-chloro-3-fluoro-phenyl)-4-(cyanomethyl)-1-piperidyl]-[1,2,4]triazolo[1,5-a]pyridin-2-yl]amino]-N-methyl-N-(1-methyl-4-piperidyl)benzamide] | 7.74
CNC(=O)CC1(c2ccc(Cl)cc2)CCN(c2cccn3nc(Nc4ccc(C(=O)N(C)C5CCN(C)CC5)cc4)nc23)CC1 [Example 1-299, 4-[[8-[4-(4-chlorophenyl)-4-[2-(methylamino)-2-oxo-ethyl]-1-piperidyl]-[1,2,4]triazolo[1,5-a]pyridin-2-yl]amino]-N-methyl-N-(1-methyl-4-piperidyl)benzamide] | 7.25
CN1CCC(N(C)C(=O)c2ccc(Nc3nc4c(N5CCC(CC(=O)O)(c6ccc(Cl)cc6)CC5)cccn4n3)cc2)CC1 [Example 1-301, 2-[4-(4-chlorophenyl)-1-[2-[4-[methyl-(1-methyl-4-piperidyl)carbamoyl]anilino]-[1,2,4]triazolo[1,5-a]pyridin-8-yl]-4-piperidyl]acetic acid] | 6.75
